For one assay, the target named is PPAR-α (Homo sapiens (Human), UniProt Q07869). The experiment in a line: Measurement of PPAR-α activity (GAL4 luciferase reporter assay in CV-1 cells). The following applies: 100(A/B), B = compound in WO/2011/058154 at 100 μM, read-out: PPARα relative fold induction (%). It counts as cell-based. The method, then: The PPAR-α activity was measured according to the published article (THE JOURNAL OF BIOLOGICAL CHEMISTRY Vol. 270, No. 22, 12953-12956, 1995).
Plasmids used for the PPAR-α activity measurement were constructed as follows. A luciferase expression plasmid (UASx5-TK-Luc) used was obtained by introducing a sequence, in which five yeast GAL4-binding sequences are linked in tandem, upstream of a thymidine kinase promoter of pTAL-Luc (Takara Bio Inc., 6252-1). A PPAR-α receptor expression plasmid (hGR-GAL4-hPPARα) used was obtained by introducing a human GR N-terminal region (1-76 aa), a yeast GAL4 DNA-binding region (1-147 aa), and a PPARα ligand-binding region (167-468 aa) between a Not I site and a Sal I site of pExchange-1 Core Vector (Invitrogen Corporation, 211176).
A reporter assay was conducted by the following method using Cercopithecus aethiops kidney-derived CV-1 cells. The CV-1 cells were seeded in a 96-well plate (Thermo Fisher Scientific Inc., 4938) at 2×10^4 cells/well using a 10% FBS-containing DMEM (Nacalai Tesque, Inc., 0845874) medium. After culturing under conditions of 37° C. and 5% CO2 for 2 hours, the plasmids were transfected. Lipofectamine LTX (Invitrogen Corporation, 15338-100) was used for the transfection according to the attached manual. The plasmid solution was prepared by adding a mixture solution of the luciferase expression plasmid and the PPAR-α receptor expression plasmid to OPTI-MEM I (Invitrogen Corporation, 11058-021). After the transfection was conducted, the test compound was added, and cultured at 37° C. in the presence of 5% CO2 for 18 to 20 hours. After the culturing was completed, the luciferase activity was measured with Luminescensor JNR (ATTO) using Bright-Glo (Promega Corporation, E2620).
The fold induction of PPAR-α by the test compounds was calculated by the following method. For the compounds of Examples 1, 4, 5, 7, and 9, PPAR-α relative fold induction (%) was defined as 100 (A/B), where A represents the maximum value of PPAR-α activities with the test compound at 0.3 μM, 1 μM, 3 μM, 10 μM, 30 μM, and 100 μM, and B represents the PPAR-α activity with the compound in WO/2011/058154 at 100 μM. For the compounds of Examples 11, 15, 19, 22, 26, and 32, PPAR-α relative fold induction (%) was defined as 100 (A/B), where A represents the maximum value of PPAR-α activities with the test compound at 3 μM, 10 μM, 30 μM, and 100 μM, and B represents the PPAR-α activity with the compound in WO/2011/058154 at 100 μM.

Assay [1] addresses human GYS1 (glycogen synthase) (Homo sapiens (Human), UniProt P13807). The experiment in a line: Measurement of glycogen synthase activity (coupled pyruvate kinase/lactate dehydrogenase assay, absorbance at 340 nm). The class given is biochemical. The settings on record: concentration inducing relative activity of 50% (100% = Ex. 1 of WO/2011/058154 at 10 μM). The procedure, abridged:
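GYS1 expressed in HEK293T cells, with the lysate pellet used as enzyme. Reaction with glucose-6-phosphate, glycogen, UDP-glucose, PEP and NADH, pH 7.3, incubated 30° C for 25 min or 37° C for 20 min, then A340 read. EC50 relative to a reference activator at 10 μM set as 100%.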

The mark [2] stands for this setting: test concentrations not stated for these examples.
[3] abbreviates: incubation at 37° C. for 20 minutes (Examples 11 to 75).
The mark [4] stands for this setting: A = maximum activity at 3, 10, 30 and 100 μM.
Where [5] appears, read: A = maximum activity at 0.3, 1, 3, 10, 30 and 100 μM.
Setting [6] is: incubation at 30° C. for 25 minutes (Examples 1 to 10).

Structures are written as SMILES. Read-outs that look alike come from different tables or passages of the source.

Usually EC50 stands for the concentration that produces a half-maximal response.

Sequence of human GYS1 (glycogen synthase) (P13807 whole entry): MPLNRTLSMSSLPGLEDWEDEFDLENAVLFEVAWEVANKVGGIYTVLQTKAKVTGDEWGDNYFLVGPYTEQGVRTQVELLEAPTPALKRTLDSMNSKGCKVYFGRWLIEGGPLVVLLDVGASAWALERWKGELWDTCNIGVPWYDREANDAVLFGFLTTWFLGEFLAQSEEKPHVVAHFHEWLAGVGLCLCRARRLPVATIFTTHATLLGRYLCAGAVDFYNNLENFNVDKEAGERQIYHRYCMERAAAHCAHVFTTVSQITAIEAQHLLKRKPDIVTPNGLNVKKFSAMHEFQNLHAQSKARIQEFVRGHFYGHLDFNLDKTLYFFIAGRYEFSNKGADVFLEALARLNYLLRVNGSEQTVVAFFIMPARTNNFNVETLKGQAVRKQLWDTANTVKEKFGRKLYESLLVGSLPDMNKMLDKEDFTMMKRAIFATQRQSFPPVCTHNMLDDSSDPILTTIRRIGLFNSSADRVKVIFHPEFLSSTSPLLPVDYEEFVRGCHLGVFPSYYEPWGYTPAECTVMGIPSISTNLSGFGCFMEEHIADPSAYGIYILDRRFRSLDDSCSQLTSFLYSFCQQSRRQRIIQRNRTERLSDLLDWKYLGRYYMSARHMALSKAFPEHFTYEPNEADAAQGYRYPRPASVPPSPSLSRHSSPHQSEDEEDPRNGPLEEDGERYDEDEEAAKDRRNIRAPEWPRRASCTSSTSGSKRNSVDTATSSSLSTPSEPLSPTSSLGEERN
Sequence of PPAR-α (Q07869 167-468): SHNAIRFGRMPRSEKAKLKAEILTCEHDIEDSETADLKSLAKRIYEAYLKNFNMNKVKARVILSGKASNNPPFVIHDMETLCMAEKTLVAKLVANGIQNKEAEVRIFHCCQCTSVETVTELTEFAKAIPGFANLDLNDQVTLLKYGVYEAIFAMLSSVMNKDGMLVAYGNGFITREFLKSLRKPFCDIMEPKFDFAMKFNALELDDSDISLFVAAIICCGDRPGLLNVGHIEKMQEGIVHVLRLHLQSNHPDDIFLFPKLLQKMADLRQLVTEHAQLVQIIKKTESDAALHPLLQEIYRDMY

Consider `N#CCCSc1cc(F)c(F)cc1-c1ccc(OCc2cccc(C(=O)N3CCC[C@H]3C(=O)O)c2)cc1` [compound of Ex. 72, 1-{3-[({2′-[(2-cyanoethyl)thio]-4′,5′-difluorobiphenyl-4-yl}oxy)methyl]benzoyl}-L-proline], for which, at PPAR-α (setting [2]), the Emax came out at 15%. Further, a half-maximal response in assay [1] (setting [3]) (EC50) required 190 nM.

`O=C(O)[C@@H]1CCCN1C(=O)c1cccc(COc2ccc(-c3cc(F)c(F)c4c3OCC4)cc2)c1` [compound of Ex. 19, 1-(3-{[4-(4,5-difluoro-2,3-dihydro-1-benzofuran-7-yl)phenoxy]methyl}benzoyl)-L-proline]: the Emax at PPAR-α (setting [4]) came to 12%. In assay [1] (setting [3]), this molecule had an EC50 of 31 nM.

For the molecule `O=C(O)[C@@H]1CCCN1C(=O)c1cccc(COc2ccc(-c3cc(F)c(F)c4cc(CO)sc34)cc2)c1` [compound of Ex. 66, 1-[3-({4-[4,5-difluoro-2-(hydroxymethyl)-1-benzothien-7-yl]phenoxy}methyl)benzoyl]-L-proline], the Emax at PPAR-α (setting [2]) stood at 18%. In assay [1] (setting [3]), a half-maximal effect (EC50) was put at 74 nM.

For `O=C1COc2c(cccc2-c2ccc(OCc3cccc(C(=O)N4CCC[C@H]4C(=O)O)c3)cc2)N1` [compound of Ex. 32, 1-(3-{[4-(3-oxo-3,4-dihydro-2H-1,4-benzoxazin-8-yl)phenoxy]methyl}benzoyl)-L-proline], the Emax at PPAR-α (setting [4]) stood at 3%. The molecule further displayed an EC50 in assay [1] (setting [3]) of 750 nM.

Consider `COC(=O)c1cc(F)c(F)cc1-c1ccc(OCc2cccc(C(=O)N3CCC[C@H]3C(=O)O)c2)cc1` [compound of Ex. 44, 1-[3-({[4′,5′-difluoro-2′-(methoxycarbonyl)biphenyl-4-yl]oxy}methyl)benzoyl]-L-proline], for which, on PPAR-α (setting [2]), the Emax was found to be 10%. For the same molecule, the midpoint of the response in assay [1] (setting [3]), the EC50, lay at 810 nM.

Regarding `N#CCSc1cc(F)c(F)cc1-c1ccc(OCc2cccc(C(=O)N3CCC[C@H]3C(=O)O)c2)cc1` [compound of Ex. 71, 1-{3-[({2′-[(cyanomethyl)thio]-4′,5′-difluorobiphenyl-4-yl}oxy)methyl]benzoyl}-L-proline], at PPAR-α (setting [2]), the Emax is 8.6%. The EC50 in assay [1] (setting [3]) came to 38 nM.

Regarding `O=C(O)[C@@H]1CCCN1C(=O)c1cccc(COc2ccc(-c3cccc4c3OCC=C4)cc2)c1` [compound of Ex. 9], the Emax at PPAR-α (setting [5]) is 11%. Besides, the EC50 in assay [1] (setting [6]) is 320 nM.

`O=C(O)[C@@H]1CCCN1C(=O)c1cccc(COc2ccc(-c3cc(F)c(F)c4ccoc34)cc2)c1` [compound of Ex. 15, 1-(3-{[4-(4,5-difluoro-1-benzofuran-7-yl)phenoxy]methyl}benzoyl)-L-proline]: on PPAR-α (setting [4]), the Emax came to 20%. The same molecule came in with an EC50 in assay [1] (setting [3]) of 22 nM.

Consider `O=C(O)[C@@H]1CCCN1C(=O)c1cccc(COc2ccc(-c3cccc4ccoc34)cc2)c1` [compound of Ex. 7], for which the Emax on PPAR-α (setting [5]) came out at 17%. The same molecule registered a concentration giving a half-maximal response (EC50) in assay [1] (setting [6]) of 260 nM.

In the case of `O=C(O)[C@@H]1CCCN1C(=O)c1cccc(COc2ccc(-c3cccc4[nH]ccc34)cc2)c1` [compound of Ex. 26, 1-(3-{[4-(1H-indol-4-yl)phenoxy]methyl}benzoyl)-L-proline], the Emax at PPAR-α (setting [4]) came out at 13%. The molecule also had an EC50 in assay [1] (setting [3]) of 160 nM.

Take `O=C(O)[C@@H]1CCCN1C(=O)c1cccc(COc2ccc(-c3cccc4c3OCO4)cc2)c1` [compound of Ex. 4, 1-(3-{[4-(1,3-benzodioxol-4-yl)phenoxy]methyl}benzoyl)-L-proline]: the Emax at PPAR-α (setting [5]) worked out at 17%. The same molecule yielded an EC50 in assay [1] (setting [6]) of 250 nM.

As to `N#Cc1coc2c(-c3ccc(OCc4cccc(C(=O)N5CCC[C@H]5C(=O)O)c4)cc3)cc(F)c(F)c12` [compound of Ex. 53], on PPAR-α (setting [2]), the Emax was determined as 15%. Moreover, the EC50 in assay [1] (setting [3]) was found to be 610 nM.

As for `O=C(O)[C@@H]1CCCN1C(=O)c1cccc(COc2ccc(-c3cc(F)c(F)c4cc(CO)oc34)cc2)c1` [compound of Ex. 70, 1-[3-({4-[4,5-difluoro-2-(hydroxymethyl)-1-benzofuran-7-yl]phenoxy}methyl)benzoyl]-L-proline], the Emax at PPAR-α (setting [2]) was determined as 7.9%. The molecule further displayed an EC50 in assay [1] (setting [3]) of 200 nM.

Take `O=Cc1cc2c(F)c(F)cc(-c3ccc(OCc4cccc(C(=O)N5CCC[C@H]5C(=O)O)c4)cc3)c2s1` [compound of Ex. 65, 1-(3-{[4-(4,5-difluoro-2-formyl-1-benzothien-7-yl)phenoxy]methyl}benzoyl)-L-proline]: the Emax at PPAR-α (setting [2]) is 11%. Moreover, the response in assay [1] (setting [3]) was half-maximal at 300 nM (EC50).

Values taken from US9290487B2, “Pharmaceutical composition for treating diabetes” (Ajinomoto Co., Inc., priority 2011, dated 2016).
